From patent publication US6953812B2, “Glucagon antagonists/inverse agonists” (Novo Nordisk, Inc., priority 2000, dated 2005)

Columns and labels:
human GIP receptor = target: T1, human GIP receptor (Homo sapiens, UniProt P48546); assay: GIP Binding Assay; details: membranes of BHK cells transfected with human GIP receptor, 125I-GIP, SPA; read-out: GIP Bd Assay IC50
T1 construct: expressed in transfected cells; host or cells: BHK (baby hamster kidney) cells, membrane preparation
T1 sequence (P48546 22-466): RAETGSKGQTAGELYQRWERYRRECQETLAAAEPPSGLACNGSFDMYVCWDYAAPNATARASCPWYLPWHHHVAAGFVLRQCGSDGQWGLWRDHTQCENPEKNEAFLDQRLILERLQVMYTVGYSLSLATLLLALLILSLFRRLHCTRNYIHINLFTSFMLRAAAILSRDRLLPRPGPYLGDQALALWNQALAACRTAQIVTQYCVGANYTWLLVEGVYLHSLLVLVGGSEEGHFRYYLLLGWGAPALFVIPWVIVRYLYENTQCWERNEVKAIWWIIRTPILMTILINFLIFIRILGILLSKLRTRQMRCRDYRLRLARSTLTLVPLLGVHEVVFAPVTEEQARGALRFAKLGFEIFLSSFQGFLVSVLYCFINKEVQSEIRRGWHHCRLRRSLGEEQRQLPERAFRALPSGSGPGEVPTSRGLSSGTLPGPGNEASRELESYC
Procedure: BHK (baby hamster kidney cell line) cells are transfected with the human GIP receptor and a membrane preparation of the cells is prepared.
(§1) All steps in the membrane preparation are kept on ice or performed at 4° C. BHK cells are harvested and centrifuged. The pellet is resuspended in homogenisation buffer (25 mM) HEPES, pH=7.4, 2.5 mM CaCl2, 1.0 mM MgCl2, 250 mg/L bacitracin, 0.1 mM Pefabloc), homogenised 2×10 sec using Polytron 10-35 homogenizer (Kinematica) and added the same amount of homogenisation buffer as used for resuspension. After centrifugation (15 min at 2000×g) the supernatant is transferred to cold centrifuge tubes and centrifuged for 45 min at 40.000×g. The pellet is resuspended in homogenisation buffer, homogenised 2×10 sec (Polytron) and additional homogenisation buffer is added. The suspension is centrifuged for 45 min at 40.000×g and the pellet is resuspended in resuspension buffer (25 mM HEPES, pH=7.4, 2.5 mM CaCl2, 1.0 mM MgCl2) and homogenised 2×10 sec. (Polytron). […] Stabilisation buffer (25 mM HEPES, pH=7.4, 2.5 mM CaCl2, 1.0 mM MgCl2, 1% bovine serum albumin, 500 mg/L bacitracin, 2.5 M sucrose) is added and the membrane preparation is stored at −80° C.
(§2) The GIP binding assay is carried out in opti plates (Polystyrene Microplates, Packard). 50 μL assay buffer (25 mM HEPES, pH=7.5, 2.5 mM CaCl2, 1.0 mM MgCl2, 0.003% Tween-20, 0.005% bacitracin, 0.05% sodium azide) and 5 μL GIP or test compound (in DMSO) are added to each well. […] Finally 50 μL WGA beads containing 1 mg beads are transferred to the well. The opti plates are incubated for 3.5 hours on a shaker and then settled for 8-48 hours. The opti plates are counted in a Top-counter. Non-specific binding is determined with 500 nM of GIP.

human glucagon receptor = target: T2, human glucagon receptor (Homo sapiens, UniProt P47871); assay: Glucagon Binding Assay (II); details: membranes of BHK cells transfected with human glucagon receptor, 125I-glucagon, SPA; read-out: Glu Bd Assay (II) IC50
T2 construct: expressed in transfected cells; host or cells: BHK (baby hamster kidney) cells, membrane preparation
T2 sequence (P47871 26-477): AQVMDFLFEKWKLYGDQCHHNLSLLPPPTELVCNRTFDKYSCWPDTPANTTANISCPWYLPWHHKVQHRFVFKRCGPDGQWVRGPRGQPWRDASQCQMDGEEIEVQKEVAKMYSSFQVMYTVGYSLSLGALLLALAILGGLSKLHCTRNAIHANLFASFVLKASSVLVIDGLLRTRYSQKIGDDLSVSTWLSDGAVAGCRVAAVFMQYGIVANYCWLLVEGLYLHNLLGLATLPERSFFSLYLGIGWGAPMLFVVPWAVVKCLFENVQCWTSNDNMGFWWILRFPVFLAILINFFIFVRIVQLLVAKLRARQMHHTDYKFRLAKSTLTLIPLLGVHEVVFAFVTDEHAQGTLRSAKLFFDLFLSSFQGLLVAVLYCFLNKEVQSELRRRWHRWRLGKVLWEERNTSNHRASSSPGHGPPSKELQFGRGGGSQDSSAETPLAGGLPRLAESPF
Procedure: Glucagon Binding Assay (II)
BHK (baby hamster kidney cell line) cells are transfected with the human glucagon receptor and a membrane preparation of the cells is prepared.
as §1, with “mM” for “mM)”
as §2, with “glucagon” for “GIP”, “4” for “3.5”, “Topcounter.” for “Top-counter.”, “glucagon.” for “GIP.”

Row | Structure (SMILES) | IC50 (human GIP receptor) [nM] | IC50 (human glucagon receptor) [nM]
1 | O=C(NC[C@@H](O)C(=O)O)c1ccc(CN(C(=O)Nc2ccc(Cl)c(Cl)c2)c2ccc(C3CCCCC3)cc2)cc1 [Example 42, (R)-3-{4-[1-(4-Cyclohexylphenyl)-3-(3,4-dichlorophenyl)ureidomethyl]benzoylamino}-2-hydroxypropionic acid] | 340 | 41
2 | O=C(NC[C@@H](O)C(=O)O)c1ccc(CN(C(=O)Nc2ccc3c(c2)C(F)(F)OC(F)(F)O3)c2ccc(C3CCCCC3)cc2)cc1 [Example 43, (R)-3-{4-[1-(4-Cyclohexylphenyl)-3-(2,2,4,4-tetrafluoro-4H-benzo[1,3]dioxin-6-yl)ureidomethyl]benzoylamino}-2-hydroxypropionic acid] | 226 | 17
3 | CC(C)(C)c1ccc(N(Cc2ccc(C(=O)NC[C@@H](O)C(=O)O)cc2)C(=O)Nc2ccc3c(c2)C(F)(F)OC(F)(F)O3)cc1 [Example 44, (R)-3-{4-[1-(4-tert-Butylphenyl)-3-(2,2,4,4-tetrafluoro-4H-benzo[1,3]dioxin-6-yl)ureidomethyl]benzoylamino}-2-hydroxypropionic acid] | 291 | 39
4 | CC(C)(C)C1CCC(N(Cc2ccc(C(=O)NC[C@@H](O)C(=O)O)cc2)C(=O)Nc2ccc3c(c2)C(F)(F)OC(F)(F)O3)CC1 (stereo partly drawn) [Example 45, (R)-3-{4-[1-(4-tert-Butylcyclohexyl)-3-(2,2,4,4-tetrafluoro-4H-benzo[1,3]dioxin-6-yl)ureidomethyl]benzoylamino}-2-hydroxypropionic acid] | 373 | 61
5 | CC(C)(C)c1ccc(N(Cc2ccc(C(=O)NC[C@@H](O)C(=O)O)cc2)C(=O)Nc2ccc(F)c(F)c2)cc1 [Example 46, (R)-3-{4-[1-(4-tert-Butylphenyl)-3-(3,4-difluorophenyl)ureidomethyl]benzoylamino}-2-hydroxypropionic acid] | 1170 | 507
6 | O=C(NC[C@@H](O)C(=O)O)c1ccc(CN(C(=O)Nc2ccc(F)c(F)c2)c2ccc(C3CCCCC3)cc2)cc1 [Example 47, (R)-3-{4-[1-(4-Cyclohexylphenyl)-3-(3,4-difluorophenyl)ureidomethyl]benzoylamino}-2-hydroxypropionic acid] | 665 | 64
7 | O=C(NC[C@@H](O)C(=O)O)c1ccc(CN(C(=O)Nc2ccc(F)c(F)c2)c2ccc(C3=CCCCC3)cc2)cc1 [Example 48, (R)-3-{4-[1-(4-Cyclohex-1-enylphenyl)-3-(3,4-difluorophenyl)ureidomethyl]benzoylamino}-2-hydroxypropionic acid] | > 3000 | 182

Other lines, results leading:

Row | IC50 (human GIP receptor) [nM] | IC50 (human glucagon receptor) [nM] | Structure (SMILES)
8 | 160 | 25 | O=C(NC[C@@H](O)C(=O)O)c1ccc(CN(C(=O)Nc2ccc(Cl)c(C(F)(F)F)c2)c2ccc(C3CCCCC3)cc2)cc1 [Example 49, (R)-3-{4-[3-(4-Chloro-3-trifluoromethylphenyl)-1-(4-cyclohexylphenyl)ureidomethyl]benzoylamino}-2-hydroxypropionic acid]
9 | > 3000 | 119 | O=C(NC[C@@H](O)C(=O)O)c1ccc(CN(C(=O)Nc2ccc(F)c([N+](=O)[O-])c2)c2ccc(C3CCCCC3)cc2)cc1 [Example 50, (R)-3-{4-[1-(4-Cyclohexylphenyl)-3-(4-fluoro-3-nitrophenyl)ureidomethyl]benzoylamino}-2-hydroxypropionic acid]
10 | 831 | 88 | CC(C)c1ccc(NC(=O)N(Cc2ccc(C(=O)NC[C@@H](O)C(=O)O)cc2)c2ccc(C3CCCCC3)cc2)cc1 [Example 51, (R)-3-{4-[1-(4-Cyclohexylphenyl)-3-(4-isopropylphenyl)ureidomethyl]benzoylamino}-2-hydroxypropionic acid]
11 | 341 | 47 | O=C(NC[C@@H](O)C(=O)O)c1ccc(CN(C(=O)Nc2ccc(Cl)c(Cl)c2)c2ccc(C3=CCCCC3)cc2)cc1 [Example 52, (R)-3-{4-[1-(4-Cyclohex-1-enylphenyl)-3-(3,4-dichlorophenyl)ureidomethyl]benzoylamino}-2-hydroxypropionic acid]
